{
  "source": "patent US9434688B2",
  "about": "“Indole derivatives as selective androgen receptor modulators (SARMS)” (Janssen Pharmaceutica, NV, priority 2004, dated 2016)",
  "key": {"[1]": {"target": "T1, androgen receptor LBD (Panvera) (Rattus norvegicus, UniProt P15207)", "T1 construct": "5 pmol androgen receptor LBD (Panvera); purchased Panvera", "T1 sequence (P15207 651-882 limits assumed)": "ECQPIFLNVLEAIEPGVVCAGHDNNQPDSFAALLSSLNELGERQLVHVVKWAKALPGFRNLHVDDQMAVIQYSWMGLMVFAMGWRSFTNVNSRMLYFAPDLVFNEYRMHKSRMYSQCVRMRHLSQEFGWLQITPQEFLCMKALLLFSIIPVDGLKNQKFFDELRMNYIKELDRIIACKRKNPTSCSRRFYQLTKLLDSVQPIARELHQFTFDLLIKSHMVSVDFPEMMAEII", "test": "Androgen Receptor Filtration Binding Assay (PANVERA)", "conditions": "[3H] R1881 tracer", "procedure": "The assay was run on a 96 well plate with each well filled with a total reaction volume 150 μL, of a solution containing 5 pmol androgen receptor LBD (Panvera) or 30 μL of freshly prepared rat cytosol, 0.5 nM [^3H] […] (TED buffer contains 10 mM Tris.HCl pH 7.4, 1 mM sodium molybdate, 1.5 mM EDTA, 1 mM DTT and 10% (v/v) glycerol.)\nOn day one, the solution containing receptor, tracer and TED buffer was distributed into a 96 well plate. Diluted test compound or control vehicle was then added to individual wells and the plate incubated at 4° C. overnight.\nOn day two, to each well was then added 20 μL human γ-globulin (ICN 823102), prepared at 25 mg/ml in TE pH 8.0, and 55 μL 40% polyethylene glycol 8000 (JT Baker U222-08), prepared in TE pH 8.0. The plate was incubated at 4° C. for 60 minutes. During incubation, the harvester was rinsed with 10% PEG 8000, prepared in TE pH 8.0, and a GF/C Unifilter-96 was pre-wet with 10% PEG. The binding reaction was filtered, the retentate was washed three times with 10% PEG and dried under vacuum for a couple of minutes, then dried at 50° C. for 5 min and the plate was bottom sealed. Next, 25 μL of Microscint-20 (Packard) was added to the filter wells and the plate was top sealed. The plate wells were then counted on a TopCount (Packard).\nCounts per well were measured and IC50s determined by linear regression."}, "androgen receptor": {"target": "T2, androgen receptor (Rattus norvegicus, UniProt P15207)", "T2 sequence (P15207 1-902)": "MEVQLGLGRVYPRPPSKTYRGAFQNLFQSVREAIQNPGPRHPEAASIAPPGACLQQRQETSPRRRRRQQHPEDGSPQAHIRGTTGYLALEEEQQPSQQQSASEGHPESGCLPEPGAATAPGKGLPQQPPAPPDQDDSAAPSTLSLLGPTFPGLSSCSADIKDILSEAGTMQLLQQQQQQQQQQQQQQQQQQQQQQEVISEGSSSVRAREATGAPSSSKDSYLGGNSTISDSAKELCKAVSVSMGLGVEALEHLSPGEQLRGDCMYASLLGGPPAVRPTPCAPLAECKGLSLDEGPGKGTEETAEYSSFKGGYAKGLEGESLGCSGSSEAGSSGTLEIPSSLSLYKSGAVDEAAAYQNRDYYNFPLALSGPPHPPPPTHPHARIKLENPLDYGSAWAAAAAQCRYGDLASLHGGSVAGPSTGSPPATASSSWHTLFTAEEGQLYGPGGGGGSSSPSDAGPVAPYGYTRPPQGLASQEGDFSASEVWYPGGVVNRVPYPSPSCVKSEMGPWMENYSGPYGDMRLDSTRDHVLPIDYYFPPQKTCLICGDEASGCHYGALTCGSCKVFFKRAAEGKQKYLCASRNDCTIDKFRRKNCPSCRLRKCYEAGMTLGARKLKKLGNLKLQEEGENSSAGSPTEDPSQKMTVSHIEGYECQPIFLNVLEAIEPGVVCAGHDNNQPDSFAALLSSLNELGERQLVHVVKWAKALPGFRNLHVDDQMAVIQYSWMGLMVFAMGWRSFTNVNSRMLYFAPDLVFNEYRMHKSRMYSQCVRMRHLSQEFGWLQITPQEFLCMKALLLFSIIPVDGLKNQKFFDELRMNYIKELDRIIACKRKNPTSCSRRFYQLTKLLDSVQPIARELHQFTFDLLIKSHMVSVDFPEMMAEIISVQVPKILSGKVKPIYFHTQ", "test": "Androgen Receptor Binding Using Rat Ventral Prostate Cytosol", "set-up": "from tissue; host or cells: ventral prostate cytosol of castrated male Sprague Dawley or Wistar rats", "conditions": "Rat Cytosol; Concentration 1000 nM", "procedure": "Rat Prostate Cytosol Preparation:\nMale Sprague Dawley or Wistar rats (Charles River, 200-300 g) were used for each preparation. The day before preparing the cytosol, the rats were castrated using standard surgical procedures.\nThe rats were euthanized by carbon dioxide asphyxiation. The rat prostates were quickly removed and placed on ice in pre-chilled, pre-weighed 50 mL plastic tubes. No more than five prostates were placed into one tube. The tubes were then weighed and the prostate tissue wet weights calculated.\nTo the chilled prostate tissue was then added […] of chilled homogenization buffer. The homogenization buffer was freshly prepared by mixing 10 mM Tris.HCl, pH 7.4, 1 mM sodium molybdate, 1.5 mM EDTA, 1 mM dithiothreitol, 10% (v/v) glycerol and 1% protease inhibitor cocktail (Sigma P 8340).\nThe prostate tissue was homogenized in a cold room using a pre-chilled Polytron PT3000 homogenizer (Brinkmann). Homogenization was performed at a speed setting of 20, three times for 10 sec bursts. The tubes containing the prostate tissue was kept on ice while homogenizing. The homogenate was allowed to rest on ice for 20 sec between bursts.\nThe homogenate was then placed into pre-chilled 3 mL polycarbonate ultracentrifuge tubes and centrifuged in the TLA-100 rotor of a TL-100 ultracentrifuge for 12 min at 100,000 rpm at 4° C. The resulting supernatant was stored in 1 mL aliquots at −80° C. until needed.\nBinding to the androgen receptor was determined according to the protocol described in Example 86 using the above prepared rat cytosol.\n% Inhibition was determined by testing dilutions of the test compound (usually duplicates of 10 μM) in the binding assay. Counts per well were measured and percents of inhibition determined. […] Counts per well were measured and IC50s determined by linear regression."}},
  "data": [
    {"smiles": "Cc1ccc(C(=O)OCC(C)(O)c2cc3cc([N+](=O)[O-])c(C(F)(F)F)cc3[nH]2)cc1", "note": "(racemic) [compound 69]", "values": [
      {"measurement": "IC50", "setting": "[1]", "result": 1200, "unit": "nM"},
      {"measurement": "% Inhibition", "setting": "androgen receptor", "result": 31, "unit": "%"}
    ]}
  ]
}
